IC50 data for three compounds are collected here from patent US8609862B2, “Use of an adrenal hormone-modifying agent” (Novartis AG, priority 2010, dated 2013).

Assay [1] concerns the target T1, Rat CYP11B2 (Rattus norvegicus, UniProt P30099).
T1 construct: made in house; host or cells: V79-4 cell line #305 (stably selected with geneticin and hygromycin); sonicated homogenate, 500 x g supernatant
T1 sequence (P30099 35-510): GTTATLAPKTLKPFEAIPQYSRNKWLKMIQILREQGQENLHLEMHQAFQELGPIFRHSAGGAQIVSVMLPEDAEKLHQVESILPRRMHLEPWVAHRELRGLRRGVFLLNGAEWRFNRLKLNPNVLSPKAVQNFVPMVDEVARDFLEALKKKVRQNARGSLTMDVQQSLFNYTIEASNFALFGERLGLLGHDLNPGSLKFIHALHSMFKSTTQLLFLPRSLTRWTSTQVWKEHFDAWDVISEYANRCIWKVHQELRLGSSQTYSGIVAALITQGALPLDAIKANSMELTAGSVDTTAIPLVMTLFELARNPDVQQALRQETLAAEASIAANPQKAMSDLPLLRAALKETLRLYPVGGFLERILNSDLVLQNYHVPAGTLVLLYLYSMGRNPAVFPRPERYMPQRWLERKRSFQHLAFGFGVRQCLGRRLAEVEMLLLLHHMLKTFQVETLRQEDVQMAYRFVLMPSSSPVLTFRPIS
The experiment in a line: In vitro rat CYP11B2 assay. The class given is biochemical. The conditions noted are these: V79-4 cell homogenate, 11-deoxycorticosterone to aldosterone, SPA. The method, then:
Following 2 days of growth, cells are washed once with PBS, scraped and collected in PBS, and centrifuged at 1,300 rpm for 6 min. […] The sonication procedure is repeated 3 more times, with a 5 min incubation on ice between sonications. The sonicated material is then spun at 500×g for 4 min to remove unbroken cells. The supernatant is brought to a final glycerol concentration of 5%, flash-frozen in liquid nitrogen, and stored at −80° C.
The CYP11B2 assay is performed in 96-well U-bottom non-tissue-culture-treated plates. […] Plates are then centrifuged at 2,400 rpm for 6 min, and 100 μl of supernatant is removed for measurement of aldosterone content by scintillation proximity assay (SPA).
Measurement of aldosterone is performed using a 96-well plate format. […] Anti-mouse PVT SPA beads (50 μl) are then added to each well and incubated for 4 hr at room temperature prior to counting in a Microbeta plate counter. The amount of aldosterone in each sample is calculated by comparing with a standard curve generated using known quantities of the hormone.
Full concentration-response curves of an inhibitor are performed at least 3 times. The IC50 values are derived using a non-linear least squares curve-fitting program from DBS XLfit.

For assay [2], the target named is T2, Human CYP11B2 (Homo sapiens, UniProt P19099).
T2 construct: host or cells: NCI-H295R human adrenocortical carcinoma cells, stimulated with 1 uM Ang II
T2 sequence (P19099 25-503): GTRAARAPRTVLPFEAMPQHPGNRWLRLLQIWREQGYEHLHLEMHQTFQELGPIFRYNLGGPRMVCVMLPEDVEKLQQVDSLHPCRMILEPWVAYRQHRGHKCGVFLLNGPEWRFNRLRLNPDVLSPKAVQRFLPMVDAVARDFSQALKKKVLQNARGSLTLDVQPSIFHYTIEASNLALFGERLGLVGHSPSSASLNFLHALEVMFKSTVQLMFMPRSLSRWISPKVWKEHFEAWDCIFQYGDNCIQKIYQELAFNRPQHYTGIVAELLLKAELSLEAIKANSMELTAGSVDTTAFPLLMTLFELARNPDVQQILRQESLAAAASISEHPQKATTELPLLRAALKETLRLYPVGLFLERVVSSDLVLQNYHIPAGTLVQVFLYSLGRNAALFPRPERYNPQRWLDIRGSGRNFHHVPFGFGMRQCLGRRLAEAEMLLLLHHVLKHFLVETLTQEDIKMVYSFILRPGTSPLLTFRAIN
Kind of assay: In vitro human CYP11B2 (aldesterone) assay in NCI-H295R cells. It counts as cell-based. Particulars: 1 μM Ang II, 24 hr, aldosterone production by SPA. The source says:
Human adrenocortical carcinoma NCI-H295R cell line was obtained from American Type Culture Collection (Manassas, Va.). […] Anti-mouse PVT scintillation proximity assay (SPA) beads and NBS 96-well plates were obtained from GE Health Sciences (Piscataway, N.J.) and Corning (Acton, Mass.), respectively. Solid black 96-well flat bottom plates were purchased from Costar (Corning, N.Y.). Aldosterone and angiotensin (Ang II) were purchased from Sigma (St. Louis, Mo.). D-[1,2,6,7-^3H(N)]aldosterone was acquired from PerkinElmer (Boston, Mass.). Nu-serum was a product of BD Biosciences (Franklin Lakes, N.J.).
Measurement of aldosterone activity can also be performed using a 96-well plate format. […] The amount of aldosterone in each sample is calculated by comparing with a standard curve generated using known quantities of the hormone.
Inhibition of the release of certain steroids can be used as a measure of the respective enzyme inhibition by the added test compounds. […] The inhibition plot is calculated by fitting a 4-parameter logistic function to the raw data points using the least squares method. The equation of the 4-parameter logistic function is calculated as follows: Y=(d−a)/((1+(x/c)b))+a, where: a=minimum data level, b=gradient, I […], d=maximum data level, x=inhibitor concentration.

pIC50: −log10 of the molar value.

The pIC50 is −log10 of the IC50, conventionally taken in molar units.

As to `N#Cc1ccc(C2CCCCc3cncn32)c(Br)c1` (racemic) [3-bromo-4-(6,7,8,9-tetrahydro-5H-imidazo[1,5-a]azepin-5-yl)benzonitrile racemate, 3-bromo-4-(6,7,8,9-tetrahydro-5H-imidazo[1,5-a]azepin-5-yl)benzonitrile], the pIC50 in assay [1] was 9.00; in assay [2] it was 8.92.

For the compound `N#Cc1ccc(C2CCCCc3cncn32)c(-c2ccc(F)cc2)c1` (single isomer, unassigned) [4′-fluoro-6-(6,7,8,9-tetrahydro-5H-imidazo[1,5-a]azepin-5-yl)biphenyl-3-carbonitrile], the figures for the pIC50 in assay [1] and in assay [2] were 9.00 and 9.40, respectively.

For `COc1ccc(CN(C)C(=O)C2(c3ccc(C#N)cc3Cl)CCc3cncn32)cc1` (stereo not drawn) [5-(2-chloro-4-cyanophenyl)-N-(4-methoxybenzyl)-N-methyl-6,7-dihydro-5H-pyrrolo[1,2-c]imidazole-5-carboxamide], the pIC50 in assay [1] is 8.30; in assay [2], 8.57.
